Measurements published in patent US11779582B2, “Composition for preventing or treating metastatic ovarian cancer, endometrial cancer or breast cancer” (LEMONEX INC., priority 2017, dated 2023).

Columns and labels:
Type in all cases: cell-based
[1] = tested on: monolayer cultured SKOV3ip1 ovarian cancer cells; experiment: crystal violet cell viability, 2D monolayer culture; settings: monolayer cultured SKOV3ip1, 72 hours, different concentrations, crystal violet colorimeter (FIG. 3)
Description: 2D monolayer culture was implemented in the following manner: cells were cultured at 37° C., 5% CO2 humidified atmosphere using RPMI 1640 medium (Corning, NY, USA) supplemented with 10% fetal bovine serum (Gibco, NY, USA) and 10 U/ml penicillin/streptomycin.
Crystal violet staining was implemented to determine the cell viability in the monolayer cultured cell model and sphere cultured cell model. In order to implement the crystal violet staining in the monolayer culture model, SKOV3ip1 cells (5×10^4) were dispensed in commercial 24-well plates and incubated overnight. Thereafter, the drug was dispensed with a desired concentration for experiment into each well, followed by further incubation for 72 hours. 300 μl of 0.2% crystal violet solution was added to each well, followed by further incubation for 20 minutes while gently stirring the same. The stained cells were washed with distilled water until a clean background is observed. For assessment using a colorimeter, the crystal violet dye was extracted with 1% SDS/PBS and absorbance was measured at 570 nm wavelength by EMax PLUS microplate reader (Molecular Device, USA).
(§1) The monolayer cultured or sphere cultured SKOV3ip1 cells were treated with the tyrosine kinase inhibitor and paclitaxel for 72 hours, the cell viability was determined by the crystal violet colorimeter, and results thereof are shown in FIG. 3.

[2] = tested on: SKOV3-TR ovarian cancer cells; experiment: microscopic analysis of cell shape change due to cytotoxicity; settings: single agent: 2.5 μM BGJ398 or 50 nM paclitaxel (FIG. 20)
Description: (§2) According to the same procedures as described in the previous examples, each cell line was divided and cultured by 2D monolayer culture and 3D sphere culture, respectively. Then, a change due to administration of BGJ398 alone or in combination with paclitaxel was analyzed through morphological analysis and crystal violet staining assay.
FIG. 20 illustrates a change in cell shape due to cytotoxicity under microscopic analysis, when paclitaxel alone, BGJ398 alone or in combination with paclitaxel was administered to SKOV3-TR ovarian cancer cells.

[3] = tested on: sphere cultured SKOV3ip1 ovarian cancer cells; experiment: crystal violet cell viability, 3D sphere culture; settings: for cell viability: sphere cultured SKOV3ip1, 72 hours, different concentrations, crystal violet colorimeter (FIG. 3)
Description: (§3) For 3D sphere culture, SKOV3ip1 cells (1×10^6) were dispensed on ultra-low adherent 6-well plate (Corning NY, USA), and then, cultured in 5% CO2 incubator using RPMI 1640 medium supplemented with 10% fetal bovine serum (Gibco, NY, USA) and 10 U/ml penicillin/streptomycin (Gibco).
In order to assess the cell viability in the sphere cultured cells, the SKOV3ip1 cells (5×10^4) were dispensed on the super-low adherent 24-well plate and cultured overnight. The cells were harvested from each well and the commercial 24-well plate was moved, followed by further incubation for 12 hours. The adhered and visualized cells were stained with 0.2% crystal violet solution for 20 minutes while gently agitating the same. The stained cells were washed with distilled water until a clean background is observed. For assessment using a colorimeter, the crystal violet dye was extracted with 1% SDS/PBS and absorbance was measured at 570 nm wavelength by EMax PLUS microplate reader (Molecular Device, USA).
as §1
Since the cell survival of the sphere cultured SKOV3ip1 cells is inhibited by BGJ398 treatment, whether such cell survival inhibition is intermediated through JAK/STAT3 signaling pathway was further examined. For this purpose, the selective JAK tyrosine kinase inhibitor AG490 was used at different concentrations of 3.125 to 50 μM in order to treat the monolayer cultured or sphere cultured SKOV3ip1 cells, and after 72 hours, whether it affects the cell viability and AKT and STAT3 activation was examined through crystal violet staining and immunostaining assay, and results thereof are shown in FIG. 7. Actin was used as a loading control group.
Under this ground, when administering BGJ398 in combination with paclitaxel typically used as the existing primary anticancer drug for ovarian cancer, whether paclitaxel resistance of the sphere cultured cells is overcome and improved was determined.

[4] = tested on: SKOV3-TR ovarian cancer cells; experiment: crystal violet cell viability in paclitaxel-resistant cells
Description: SKOV3-TR cell line was offered from Sood AK in MD-Anderson Cancer Center (USA) and then used in the present experiments.
Paclitaxel resistance of each of SKOV3 and SKOV3-TR was determined by measuring the cell viability through crystal violet colorimetric assay. This experiment was implemented three times and a difference in results thereof was estimated by student's t-test.
as §2

SKOV3-TR = experiment: crystal violet staining assay, cisplatin and BGJ398, 2D culture; settings: 2D culture, cisplatin alone (FIG. 29)
Description: (§4) According to the same procedures as described in the previous examples, each cell line was subjected to 2D culture and a change thereof upon administration of cisplatin alone, BGJ398 alone or in combination with cisplatin was analyzed through crystal violet staining assay.

SKOV3ip1 = experiment: as above; settings: SKOV3ip1, 2D culture, cisplatin alone (FIG. 29)
Description: as §4

[5] = tested on: AKT and STAT3 phosphorylation in sphere cultured SKOV3ip1 cells; experiment: immunostaining of AKT and STAT3 phosphorylation, sphere culture; settings: for phosphorylated AKT at Ser473: sphere cultured, 5 μM BGJ398, 3 μM TAE648, 5 μM imatinib, 72 hours (FIG. 6)
Excerpt: In order to identify whether a change in signaling pathways associated with cell survival appears or not according to 2D monolayer culture (2D MC) and 3D sphere culture (3D SC), immunostaining was implemented. More particularly, after culturing SKOV3ip1 cells (1×10^6) by 2D monolayer culture or 3D sphere culture described in section 1.1, expression of cell-signaling molecules including AKT, STAT3, p42/44 ERK and p38 MAPK was detected and activation states in the monolayer cultured cells and the sphere cultured cells were compared. The monolayer cultured or sphere cultured SKOV3ip1 cells were harvested and washed once with ice-cold 1× phosphate buffered saline, followed by dissolving the same in 100 μl ice-cold RIPA buffer (20 mM Tris-Cl, pH 8.0, 125 mM NaCl, […], 1 mM ethylene diamine tetraacetic acid, 1% Triton X-100, 0.5% sodium deoxycholate, 0.1% sodium dodecyl sulfate, 1× complete protease inhibitor cocktail (Roche, Mannheim, Germany)) on ice. After assessing the protein concentration using a Bradford Protein assay kit (Biorad, CA, USA), the same amount of proteins (30 μg) was separated by SDS-PAGE and moved to a nitrocellulose membrane, followed by immunostaining the same using a horseradish peroxide conjugated second antibody and a specific antibody. An immune activation band was detected with SuperSignal West Pico Chemiluminescent Substrate (Thermo, IL, USA) using a Fusion Solo chemiluminescence analyzer (Vilber Rourmat Marne la Vallee, France). Antibodies to STAT3 (H-190), STAT3 (B-7) phosphorylated at Tyr705 and actin (C-2) were purchased from Santa Cruz Biotechnology. Rabbit monoclonal antibodies on AKT, AKT (D9E) phosphorylated at Ser473, FGFR1 phosphorylated at Tyr 653/654, p42/44 MAPK, phosphorylated p42/44 MAPK, p38 MAPK and p38 MAPK phosphorylated at Tyr 180/182 were purchased from Cell Signaling Technology (MA, USA). Further, HRP-conjugated goat anti-mouse and rabbit secondary antibodies were purchased from Jackson Laboratories, while BGJ398 used in the experiment (against FGFR1/2/3) was purchased from Selleckchem (USA).
Under this ground, in order to determine whether BGJ398 can vary the state of AKT and STAT3 in the sphere cultured SKOV3ip1 cells, the monolayer cultured (MC) or sphere cultured (SC) SKOV3ip1 cells were subjected to treatment using 5 μM BGJ398, followed by examining the degree of phosphorylation due to the above treatment.
Further, the sphere cultured SKOV3ip1 cells were treated with 5 μM BGJ398 (BGJ), 3 μM TAE648 (TAE) and 5 μM imatinib (IMT), respectively. After 72 hours, a cell lysate was obtained and subjected to immunostaining, followed by analyzing active cellular expression of AKT and STAT3 with the antibody for the same. Further, a phosphorylation level of FGFR1 was used as a positive control group relative to BGJ treatment groups while actin was used as a loading control group. The immunostaining assay procedure was implemented in the same manner as in Example 1.
Since the cell survival of the sphere cultured SKOV3ip1 cells is inhibited by BGJ398 treatment, whether such cell survival inhibition is intermediated through JAK/STAT3 signaling pathway was further examined. […]

[6] = tested on: sphere cultured SKOV3ip1 cells; experiment: microscopic observation of aggregated (spheroid) form; settings: 5 μM BGJ398, 3 μM TAE648, 5 μM imatinib (FIG. 5)
Description: as §3

| Structure (SMILES) | cell viability [1] | cell viability [3] | aggregated (spheroid) form of cells [6] | phosphorylated AKT at Ser473 [5] | other results |
| --- | --- | --- | --- | --- | --- |
| CC(=O)O[C@H]1C(=O)[C@@]2(C)[C@H]([C@H](OC(=O)c3ccccc3)[C@]3(O)C[C@H](OC(=O)[C@H](O)[C@@H](NC(=O)c4ccccc4)c4ccccc4)C(C)=C1C3(C)C)[C@]1(OC(C)=O)CO[C@@H]1C[C@@H]2O [paclitaxel, reference compound] | reduced by paclitaxel and TAE648 in a dose-dependent manner | more obviously resistant to paclitaxel than the monolayer cultured SKOV3ip1 cells |  |  | cytotoxicity and morphological change [2]: negligible cytotoxicity and no morphological change; paclitaxel resistance ([4]; SKOV3-TR compared with SKOV3, crystal violet colorimetric assay (FIG. 15)): significantly higher than SKOV cell line; anticancer activity ([4]; paclitaxel alone (FIGS. 18, 19)): negligible |
| N.N.[Cl][Pt][Cl] [cisplatin, reference compound] |  |  |  |  | sensitivity to cisplatin (SKOV3-TR): exhibit sensitivity to cisplatin; sensitivity to cisplatin (SKOV3ip1): exhibit sensitivity to cisplatin |
| N#C/C(=C\c1ccc(O)c(O)c1)C(=O)NCc1ccccc1 [AG490, reference compound] |  |  |  |  | cell growth ([3]; sphere cultured SKOV3ip1, AG490 3.125 to 50 μM, 72 hours (FIG. 7A)): did not suppress cell growth; AKT and STAT3 phosphorylation ([5]; sphere cultured SKOV3ip1, 5 μM BGJ398 (FIG. 6), AG490, 72 hours (FIG. 7B)): not inhibited |
| Cc1ccc(NC(=O)c2ccc(CN3CCN(C)CC3)cc2)cc1Nc1nccc(-c2cccnc2)n1 [imatinib] | not effected | did not affect the cell viability | spheroid degradation was not observed | did not show such effects |  |
| COc1cc(N2CCC(N3CCN(C)CC3)CC2)ccc1Nc1ncc(Cl)c(Nc2ccccc2S(=O)(=O)C(C)C)n1 [TAE684] | reduced by paclitaxel and TAE648 in a dose-dependent manner | TAE648 resistance was not identified | spheroid degradation was not observed | did not show such effects |  |
